Results: the NIST ThermoML archive (doi:10.1021/je0601208)
± gives the expanded uncertainty stated by the source.

Experiments:
[1] = for mass density: 101.33 kPa, Liquid
[2] = refractive index (Na D-line) (dimensionless); conditions: 101.33 kPa, Liquid, Standard Abbe refractometry
[3] = xn = mol fraction of the nth substance listed; conditions: x2 = 0
[4] = refractive index (Na D-line) (dimensionless); xn = mol fraction of the nth substance listed; conditions: 100.5 kPa, Liquid, Standard Abbe refractometry, x2 = 0

| surface tension liquid-gas ([1]; 288.15 K) | surface tension liquid-gas ([1]; 298.15 K) | mass density ([1]; 298.15 K) | surface tension liquid-gas ([1]; 308.15 K) | surface tension liquid-gas ([1]; 318.15 K) | refractive index ([2]; 288.15 K) | refractive index ([2]; 298.15 K) | refractive index ([2]; 308.15 K) | refractive index ([2]; 318.15 K) | Compound | surface tension liquid-gas ([3]; 288.15 K) | surface tension liquid-gas ([3]; 298.15 K) | surface tension liquid-gas ([3]; 308.15 K) | surface tension liquid-gas ([3]; 318.15 K) | refractive index ([4]; 288.15 K) | refractive index ([4]; 298.15 K) | refractive index ([4]; 308.15 K) | refractive index ([4]; 318.15 K) |
| --- | --- | --- | --- | --- | --- | --- | --- | --- | --- | --- | --- | --- | --- | --- | --- | --- | --- |
| 25.7 ± 0.6 mN/m | 24.7 ± 0.6 mN/m | 858.69 ± 0.44 kg/m3 | 24 ± 0.6 mN/m | 23.1 ± 0.6 mN/m | 1.41259 ± 0.00034 | 1.40815 ± 0.00034 | 1.40374 ± 0.00034 | 1.39927 ± 0.00034 | CCCC(=O)OCCC(C)C [3-methylbutyl butanoate] |  |  |  |  |  |  |  |  |
|  |  |  |  |  |  |  |  |  | CCO [ethanol] + CCCCCC(=O)OCC | 23 ± 0.6 mN/m | 22.3 ± 0.6 mN/m | 21.5 ± 0.6 mN/m | 20.6 ± 0.6 mN/m | 1.36333 ± 0.00031 | 1.35941 ± 0.00031 | 1.35531 ± 0.00031 | 1.35148 ± 0.00031 |
| 35.7 ± 0.7 mN/m | 34.6 ± 0.7 mN/m | 1041.42 ± 0.14 kg/m3 | 33.3 ± 0.7 mN/m | 32.5 ± 0.7 mN/m | 1.5076 ± 0.00032 | 1.50328 ± 0.00032 | 1.49863 ± 0.00032 | 1.49391 ± 0.00032 | CCOC(=O)c1ccccc1 [ethyl benzoate] |  |  |  |  |  |  |  |  |
|  |  |  |  |  |  |  |  |  | CCO [ethanol] + CC(=O)OCCC(C)C | 23 ± 0.4 mN/m | 22.3 ± 0.4 mN/m | 21.5 ± 0.4 mN/m | 20.6 ± 0.4 mN/m | 1.36333 ± 0.00031 | 1.35941 ± 0.00031 | 1.35531 ± 0.00031 | 1.35148 ± 0.00031 |
| 25.4 ± 0.4 mN/m | 24.3 ± 0.4 mN/m | 867.91 ± 0.45 kg/m3 | 23.4 ± 0.4 mN/m | 22.4 ± 0.4 mN/m | 1.40288 ± 0.00034 | 1.39836 ± 0.00034 | 1.39365 ± 0.00034 | 1.38895 ± 0.00034 | CC(=O)OCCC(C)C [3-methylbutyl ethanoate] |  |  |  |  |  |  |  |  |
|  |  |  |  |  |  |  |  |  | CCO [ethanol] + CCOC(=O)Cc1ccccc1 | 23 ± 0.6 mN/m | 22.3 ± 0.6 mN/m | 21.5 ± 0.6 mN/m | 20.6 ± 0.6 mN/m | 1.36333 ± 0.00031 | 1.35941 ± 0.00031 | 1.35531 ± 0.00031 | 1.35148 ± 0.00031 |
| 27.2 ± 0.6 mN/m | 26.4 ± 0.6 mN/m | 862.15 ± 0.41 kg/m3 | 25.5 ± 0.6 mN/m | 24.7 ± 0.6 mN/m | 1.41991 ± 0.00033 | 1.4156 ± 0.00033 | 1.41137 ± 0.00033 | 1.40702 ± 0.00033 | CCCCCCCC(=O)OCC [ethyl octanoate] |  |  |  |  |  |  |  |  |
| 26.4 ± 0.6 mN/m | 25.4 ± 0.6 mN/m | 866.29 ± 0.21 kg/m3 | 24.5 ± 0.6 mN/m | 23.6 ± 0.6 mN/m | 1.4095 ± 0.00032 | 1.40504 ± 0.00032 | 1.40055 ± 0.00032 | 1.39597 ± 0.00032 | CCCCCC(=O)OCC [ethyl hexanoate] |  |  |  |  |  |  |  |  |
|  |  |  |  |  |  |  |  |  | CCO [ethanol] + CCCCCCCC(=O)OCC | 23 ± 0.6 mN/m | 22.3 ± 0.6 mN/m | 21.5 ± 0.6 mN/m | 20.6 ± 0.6 mN/m | 1.36333 ± 0.00031 | 1.35941 ± 0.00031 | 1.35531 ± 0.00031 | 1.35148 ± 0.00031 |
|  |  |  |  |  |  |  |  |  | CCO [ethanol] + CCOC(=O)c1ccccc1 | 23 ± 0.6 mN/m | 22.3 ± 0.6 mN/m | 21.5 ± 0.6 mN/m | 20.6 ± 0.6 mN/m | 1.36333 ± 0.00031 | 1.35941 ± 0.00031 | 1.35531 ± 0.00031 | 1.35148 ± 0.00031 |
|  |  |  |  |  |  |  |  |  | CCO [ethanol] + CCCC(=O)OCCC(C)C | 23 ± 0.6 mN/m | 22.3 ± 0.6 mN/m | 21.5 ± 0.6 mN/m | 20.6 ± 0.6 mN/m | 1.36333 ± 0.00031 | 1.35941 ± 0.00031 | 1.35531 ± 0.00031 | 1.35148 ± 0.00031 |

| Compound | surface tension liquid-gas ([1]; 288.15 K) | surface tension liquid-gas ([1]; 298.15 K) | mass density ([1]; 298.15 K) | surface tension liquid-gas ([1]; 308.15 K) | surface tension liquid-gas ([1]; 318.15 K) | refractive index ([2]; 288.15 K) | refractive index ([2]; 298.15 K) | refractive index ([2]; 308.15 K) | refractive index ([2]; 318.15 K) | surface tension liquid-gas ([3]; 288.15 K) | surface tension liquid-gas ([3]; 298.15 K) | surface tension liquid-gas ([3]; 308.15 K) | surface tension liquid-gas ([3]; 318.15 K) | refractive index ([4]; 288.15 K) | refractive index ([4]; 298.15 K) | refractive index ([4]; 308.15 K) | refractive index ([4]; 318.15 K) |
| --- | --- | --- | --- | --- | --- | --- | --- | --- | --- | --- | --- | --- | --- | --- | --- | --- | --- |
| CCO [ethanol] | 23 ± 0.4 mN/m | 22.3 ± 0.4 mN/m | 785 ± 0.24 kg/m3 | 21.5 ± 0.4 mN/m | 20.6 ± 0.4 mN/m | 1.36333 ± 0.00031 | 1.35941 ± 0.00031 | 1.35531 ± 0.00031 | 1.35148 ± 0.00031 |  |  |  |  |  |  |  |  |
| CCOC(=O)Cc1ccccc1 [ethyl phenylacetate] | 35.9 ± 0.7 mN/m | 34.6 ± 0.7 mN/m | 1026.96 ± 0.35 kg/m3 | 33.5 ± 0.7 mN/m | 32.8 ± 0.7 mN/m | 1.49971 ± 0.00034 | 1.49513 ± 0.00034 | 1.49063 ± 0.00034 | 1.48583 ± 0.00034 |  |  |  |  |  |  |  |  |
